{"source": "patent US5811427A", "about": "(priority 1997, dated 1998)", "key": {"[1]": {"system": "Pythium ultimum", "test": "Fungitoxicity against Pythium ultimum (inhibition of mycelial growth in liquid broth)", "assay_type": "cell-based", "conditions": "Globisporangium ultimum, 48 hours at 25° C. with shaking, asparagine-sucrose broth, read-out: % Inhibition of growth (increase in mycelial dry weight) as compared to controls", "description": "Compounds were tested for fungitoxicity against Pythium ultimum according to the procedures set forth below.\nTest compounds were dissolved in dimethylsulfoxide at 20 mg/ml and 0.1 ml was added to 19.9 ml of a liquid asparagine-sucrose broth, prepared according to the method described in Erwin, D. C., and Katznelson, K., Canadian Journal of Microbiology 7, 15 (1971), in 9 cm petri dishes to give a concentration of 100 ppm of the compound. Each plate was inoculated with a mycelial plug, 7 mm in diameter, taken from the growing edge of a culture of Pythium ultimum grown on potato dextrose agar. Two replicate plates were used for each treatment. After growth for 48 hours at 25° C. with shaking on a gyrotary shaker at 60 rpm, the increase in mycelial dry weight was determined. Fungitoxicity was recorded as percent inhibition of growth as compared to controls lacking the test compounds."}, "[2]": {"system": "Phytophthora infestans", "test": "whole plant or invertebrate", "assay_type": "in vivo", "conditions": "in Solanum lycopersicum, 144 h, read-out: percent disease control, TLB"}, "[3]": {"system": "Plasmopara viticola", "assay_type": "in vivo", "conditions": "7-8 days at 20° C."}, "[4]": {"system": "Pseudoperonospora cubensis", "conditions": "in vivo"}}, "data": [{"smiles": "CCC(C)(NC(=O)c1ccc2ncoc2c1)C(=O)CCl", "note": "(stereo not shown) [Compound 1]", "values": [{"measurement": "inhibition at 100 ppm", "setting": "[1]", "result": 89.4, "unit": "%"}, {"measurement": "pest or weed control at 375 ppm", "setting": "[2]", "result": 100, "unit": "%"}]}, {"smiles": "CCC(C)(NC(=O)c1cc(Cl)c2ncoc2c1)C(=O)CCl", "note": "(stereo not shown) [Compound 3]", "values": [{"measurement": "percent disease control, GDM", "setting": "[3]", "result": 100, "unit": "%"}, {"measurement": "inhibition at 100 ppm", "setting": "[1]", "result": 92, "unit": "%"}, {"measurement": "pest or weed control at 300 ppm", "setting": "[2]", "result": 100, "unit": "%"}]}, {"smiles": "CCC(C)(NC(=O)c1ccc2ncsc2c1)C(=O)CCl", "note": "(stereo not shown) [Compound 4]", "values": [{"measurement": "inhibition at 100 ppm", "setting": "[1]", "result": 94.2, "unit": "%"}, {"measurement": "pest or weed control at 300 ppm", "setting": "[2]", "result": 100, "unit": "%"}, {"measurement": "percent disease control, CDM", "setting": "[4]", "result": 50, "unit": "%"}]}, {"smiles": "CCC(C)(NC(=O)c1ccc2[nH]ccc2c1)C(=O)C(Cl)Cl", "note": "(stereo not shown) [Compound 5]", "values": [{"measurement": "inhibition at 100 ppm", "setting": "[1]", "result": 66.9, "unit": "%"}, {"measurement": "pest or weed control at 750 ppm", "setting": "[2]", "result": 0, "unit": "%"}, {"measurement": "percent disease control, CDM", "setting": "[4]", "result": 50, "unit": "%"}]}, {"smiles": "CCC(C)(NC(=O)c1ccc2[nH]ccc2c1)C(=O)CCl", "note": "(stereo not shown) [Compound 6]", "values": [{"measurement": "percent disease control, GDM", "setting": "[3]", "result": 100, "unit": "%"}, {"measurement": "inhibition at 100 ppm", "setting": "[1]", "result": 88.6, "unit": "%"}, {"measurement": "pest or weed control at 300 ppm", "setting": "[2]", "result": 100, "unit": "%"}]}, {"smiles": "CCC(C)(NC(=O)c1ccc2c(c1)CCO2)C(=O)C(Cl)Cl", "note": "(stereo not shown) [Compound 7]", "values": [{"measurement": "inhibition at 100 ppm", "setting": "[1]", "result": 94.5, "unit": "%"}]}, {"smiles": "CCC(C)(NC(=O)c1ccc2ocnc2c1)C(=O)CCl", "note": "(stereo not shown) [Compound 8]", "values": [{"measurement": "percent disease control, GDM", "setting": "[3]", "result": 100, "unit": "%"}, {"measurement": "inhibition at 100 ppm", "setting": "[1]", "result": 93.7, "unit": "%"}, {"measurement": "pest or weed control at 300 ppm", "setting": "[2]", "result": 90, "unit": "%"}]}, {"smiles": "CCC(C)(NC(=O)c1ccc2c(c1)CCO2)C(=O)CCl", "note": "(stereo not shown) [Compound 9]", "values": [{"measurement": "percent disease control, GDM", "setting": "[3]", "result": 0, "unit": "%"}, {"measurement": "inhibition at 100 ppm", "setting": "[1]", "result": 91.6, "unit": "%"}, {"measurement": "pest or weed control at 300 ppm", "setting": "[2]", "result": 100, "unit": "%"}]}, {"smiles": "CCC(C)(NC(=O)c1cc(Cl)c2nc(C)oc2c1)C(=O)CCl", "note": "(stereo not shown) [Compound 12]", "values": [{"measurement": "percent disease control, GDM", "setting": "[3]", "result": 90, "unit": "%"}, {"measurement": "inhibition at 100 ppm", "setting": "[1]", "result": 90.7, "unit": "%"}, {"measurement": "pest or weed control at 300 ppm", "setting": "[2]", "result": 95, "unit": "%"}]}, {"smiles": "CCC(C)(NC(=O)c1ccc2nc(C)oc2c1)C(=O)C(Cl)Cl", "note": "(stereo not shown) [Compound 14]", "values": [{"measurement": "inhibition at 100 ppm", "setting": "[1]", "result": 94.5, "unit": "%"}]}]}
